Assay results reported in US20230266302A1, “SYNTHESIS AND USE OF N-BENZYL SULFONAMIDES” (THE UNIVERSITY OF TULSA, priority 2020, published 2023).

Tests used:
Experiment in all cases: ATP level assay (CellTiter-Glo), percent of control
Assay type in all cases: cell-based
[1] = system: BxPC3 (pancreatic cancer); settings: two hour incubation; for activity at 100 µM: Homo sapiens, BXPC-3, 2 h, compound alone, control DMSO, read-out: POC (percent of control) BxPC3
Excerpt: (§1) In the present method, the method of using the available assays has been modified to measure the short-term effect of compounds of interest on ATP levels in the cells. […] In the modified method, the control and test cells are initially treated with the metabolic inhibitor for a period of about thirty minutes to about four hours. Typically, the treatment of the cells with the metabolic inhibitor is for one hour prior to adding the compound to be screened for anti-cancer properties. However, simultaneous treatment with the metabolic inhibitor and the compound being screened should provide satisfactory results. […] ATP synthesis in cells occurs over multiple biochemical pathways. These pathways are very responsive to metabolic inhibitors and/or changes in available nutrients. By incorporating a metabolic inhibitor which is known to impact certain pathways, the disclosed method provides for measurement of a compound's direct effects on the remaining metabolic pathways available for ATP synthesis in the cell.
(§2) Following treatment of the control and test cells with the metabolic inhibitor, the method calls for addition of the compound to be screened for anti-cancer properties to the cells. Following addition of the compound of interest, the assay is allowed to continue for about one hour to about four hours or depending on the luminescing agent up to eighteen hours. However, approximately 60 minutes will be sufficient to determine the ATP inhibiting effect of the compound to be screened on the cells. Following completion of the selected time period, the ATP level within the cell is determined. ATP levels can be determined by luminescence according to standard measuring procedures, i.e. the luminescence level of the assay from the living cells treated with the two component composition is compared to the luminescence level of the assay from the living cells without the two component composition, i.e., the control experiment. Thus, the ATP levels are determined without killing the cells during the incubation of the cells in the presence of the compound of interest. As a result, the measured reduction in ATP level corresponds directly to the inhibition of the metabolic pathways uninhibited by the metabolic blocker.
(§3) A wide variety of ATP luminescing detection reagents are available commercially. So long as the reagent produces a luminescence in the presence of ATP, the reagent will be suitable for use in the present method. Suitable reagents include but are not limited to any ATP dependent luciferase such as but not limited to firefly luciferase, other modified luciferase based reagents, i.e. luciferase derivatives. According to the rapid method for determining the anti-cancer activity of a compound, a sample of living cells is distributed across a number of testing wells. Typically, 96-well plates are used; however, the number of wells is not critical to the current method. When using a 96-well plate the number of living cells will commonly be about 20,000. The sample wells contain a cell growth medium to promote cell health and growth and an additive to prevent bacterial contamination of the wells. One common example of the cell growth medium is DMEM with 10% FBS as described above. One example of the additive to prevent bacterial contamination is a solution of penicillin G and streptomycin referred to commonly as Pen-Strep. The Pen-Strep solution typically contains 5000 units of penicillin G and 5000 micrograms of streptomycin. Thus, the rapid determination of anti-cancer compounds can be carried out using the following method. • The desired number of cells are distributed in a 96-well plate containing 100 μL DMEM plus 10% FBS with optional Pen-Strep. • After 24 hours, cells are treated with the compound of interest or a 5% solution of dimethyl sulfoxide (DMSO) in water as a control. • The time period for exposure to the compound of interest and the DMSO control will vary depending on the luminescing detection reagent. […]

NCI-H196 (lung cancer) = settings: two hour incubation; for activity at 100 µM: NCI-H196, 2 h, compound alone, control DMSO, read-out: POC (percent of control) NCI-H196
Excerpt: as §1, §2, §3

H293 (kidney cancer) = settings: two hour incubation; for activity at 100 µM: 2 h, compound alone, control DMSO, read-out: POC (percent of control) H293
Excerpt: as §1, §2, §3

PC3 (prostate cancer) = settings: two hour incubation; for activity at 100 µM: 2 h, compound alone, control DMSO, read-out: POC (percent of control) PC3
Excerpt: as §1, §2, §3

MDA-MB (breast cancer) = settings: two hour incubation; for activity at 100 µM: 2 h, compound alone, control DMSO, read-out: POC (percent of control) MDA-MB
Excerpt: as §1, §2, §3

T47D (breast cancer) = settings: two hour incubation; for activity at 100 µM: Homo sapiens, T47D, 2 h, compound alone, control DMSO, read-out: POC (percent of control) T47D
Excerpt: as §1, §2, §3

MCF7 (breast cancer) = settings: two hour incubation; for activity at 100 µM: Homo sapiens, MCF7, 2 h, compound alone, control DMSO, read-out: POC (percent of control) MCF7
Excerpt: as §1, §2, §3

[2] = system: MCF10A (non-cancerous breast); settings: two hour incubation; for activity at 100 µM: Homo sapiens, MCF-10A, 2 h, compound alone, control DMSO, read-out: POC (percent of control) MCF10A
Excerpt: as §1, §2, §3

HDF (normal cells) = settings: two hour incubation; for activity at 100 µM: 2 h, compound alone, control DMSO, read-out: POC (percent of control) HDF
Excerpt: as §1, §2, §3

HeLa (cervical cancer) = settings: two hour incubation; for activity at 100 µM: Homo sapiens, HeLa, 2 h, compound alone, control DMSO, read-out: POC (percent of control) HeLa
Excerpt: as §1, §2, §3

SkBr3 (breast cancer) = settings: two hour incubation; for activity at 100 µM: Homo sapiens, SK-BR-3, 2 h, compound alone, control DMSO, read-out: POC (percent of control) SkBr3
Excerpt: as §1, §2, §3

[3] = compound 100 uM + 2DG (about 10-20 mM)
[4] = compound 100 uM + rotenone (approximately 1.25 μM)

| Structure (SMILES) | activity at 100 µM [1] [%] | POC (percent of control) BxPC3 [1, 4] | activity at 100 µM (NCI-H196 (lung cancer)) [%] | POC (percent of control) NCI-H196 (NCI-H196 (lung cancer); [3]) | POC (percent of control) NCI-H196 (NCI-H196 (lung cancer); [4]) | activity at 100 µM (H293 (kidney cancer)) [%] | POC (percent of control) H293 (H293 (kidney cancer); [3]) | POC (percent of control) H293 (H293 (kidney cancer); [4]) | activity at 100 µM (PC3 (prostate cancer)) [%] | POC (percent of control) PC3 (PC3 (prostate cancer); [3]) | POC (percent of control) PC3 (PC3 (prostate cancer); [4]) | activity at 100 µM (MDA-MB (breast cancer)) [%] | POC (percent of control) MDA-MB (MDA-MB (breast cancer); [3]) | POC (percent of control) MDA-MB (MDA-MB (breast cancer); [4]) | activity at 100 µM (T47D (breast cancer)) [%] | POC (percent of control) T47D (T47D (breast cancer); [3]) | POC (percent of control) T47D (T47D (breast cancer); [4]) | activity at 100 µM (MCF7 (breast cancer)) [%] | POC (percent of control) MCF7 (MCF7 (breast cancer); [3]) | POC (percent of control) MCF7 (MCF7 (breast cancer); [4]) | also measured |
| --- | --- | --- | --- | --- | --- | --- | --- | --- | --- | --- | --- | --- | --- | --- | --- | --- | --- | --- | --- | --- | --- |
| O=S(=O)(NCc1c[nH]c2cccc(Br)c12)c1ccc(Cl)cc1 [Compound 27, N-[(4-bromo-1H-indol-3-yl)methyl]-4-chlorobenzenesulfonamide] | 42.8 | 15.8% of control | 150 | 117.2% of control | 16.7% of control | 67 | 30.4% of control | 27.3% of control | 43.1 | 15.2% of control | 27.2% of control | 62.6 | 27.3% of control | 37.3% of control | 33.9 | 103.1% of control | 103.8% of control | 82.9 | 50.2% of control | 61.1% of control | POC (percent of control) BxPC3 [1, 3]: 14.2% of control; activity at 100 µM [2]: 58.9%; POC (percent of control) MCF10A [2, 3]: 27.1% of control; POC (percent of control) MCF10A [2, 4]: 30.2% of control; activity at 100 µM (HDF (normal cells)): 65%; POC (percent of control) HDF (HDF (normal cells); [3]): 38% of control; POC (percent of control) HDF (HDF (normal cells); [4]): 66.6% of control; activity at 100 µM (HeLa (cervical cancer)): 58.3%; POC (percent of control) HeLa (HeLa (cervical cancer); [3]): 104.3% of control; POC (percent of control) HeLa (HeLa (cervical cancer); [4]): 73.3% of control; activity at 100 µM (SkBr3 (breast cancer)): 95.6%; POC (percent of control) SkBr3 (SkBr3 (breast cancer); [3]): 62.4% of control; POC (percent of control) SkBr3 (SkBr3 (breast cancer); [4]): 66% of control |
| Cc1ccc(S(=O)(=O)NCc2ccc3ncccc3c2)cc1 [Compound 22, 4-methyl-N-(quinolin-6-ylmethyl)benzenesulfonamide] | 99.1 | 70.8% of control | 117 | 94.6% of control | 94.2% of control | 122 | 69.9% of control | 90.9% of control | 93 | 94.5% of control | 108.2% of control | 96.7 | 86.5% of control | 87.1% of control | 85.3 | 62.5% of control | 109.3% of control | 113 | 107.1% of control | 96.4% of control | activity at 100 µM [2]: 105%; POC (percent of control) MCF10A [2, 3]: 70.2% of control; POC (percent of control) MCF10A [2, 4]: 96.9% of control; activity at 100 µM (HDF (normal cells)): 89.7%; POC (percent of control) HDF (HDF (normal cells); [3]): 76.3% of control; POC (percent of control) HDF (HDF (normal cells); [4]): 85.5% of control; activity at 100 µM (HeLa (cervical cancer)): 101%; POC (percent of control) HeLa (HeLa (cervical cancer); [3]): 94.5% of control; POC (percent of control) HeLa (HeLa (cervical cancer); [4]): 105.2% of control; activity at 100 µM (SkBr3 (breast cancer)): 106%; POC (percent of control) SkBr3 (SkBr3 (breast cancer); [3]): 83.5% of control; POC (percent of control) SkBr3 (SkBr3 (breast cancer); [4]): 93.5% of control |
| Cn1cc(CNS(=O)(=O)c2ccc(Cl)cc2)cn1 [Compound 11, 4-chloro-N-[(1-methyl-1H-pyrazol-4-yl)methyl]benzenesulfonamide] | 99.2 | 78% of control | 95.2 | 114.7% of control | 88.9% of control | 92.8 | 87.4% of control | 88.3% of control | 113 | 94.6% of control | 96.1% of control | 95.3 | 82.4% of control | 97.9% of control | 59.3 | 90.4% of control | 99.6% of control | 118 | 98.4% of control | 94.6% of control | POC (percent of control) BxPC3 [1, 3]: 83.8% of control; activity at 100 µM [2]: 95.4%; POC (percent of control) MCF10A [2, 3]: 95.8% of control; POC (percent of control) MCF10A [2, 4]: 93.7% of control; activity at 100 µM (HDF (normal cells)): 77.4%; POC (percent of control) HDF (HDF (normal cells); [3]): 101.3% of control; POC (percent of control) HDF (HDF (normal cells); [4]): 89.8% of control; activity at 100 µM (HeLa (cervical cancer)): 103%; POC (percent of control) HeLa (HeLa (cervical cancer); [3]): 117.6% of control; POC (percent of control) HeLa (HeLa (cervical cancer); [4]): 96.4% of control; activity at 100 µM (SkBr3 (breast cancer)): 101%; POC (percent of control) SkBr3 (SkBr3 (breast cancer); [3]): 99.7% of control; POC (percent of control) SkBr3 (SkBr3 (breast cancer); [4]): 95.3% of control |
